Among the data in paper doi:10.1101/2025.07.31.667081v1 (biorxiv, 2025) are EC50 values, retold here.

What all share (type): cell-based
Experiment [1] deals with T1, NVL-SNAP (recombinant NVL WT; SNAP-NVL-3xFlag) (Homo sapiens, UniProt O15381).
T1 sequence (O15381 1-856): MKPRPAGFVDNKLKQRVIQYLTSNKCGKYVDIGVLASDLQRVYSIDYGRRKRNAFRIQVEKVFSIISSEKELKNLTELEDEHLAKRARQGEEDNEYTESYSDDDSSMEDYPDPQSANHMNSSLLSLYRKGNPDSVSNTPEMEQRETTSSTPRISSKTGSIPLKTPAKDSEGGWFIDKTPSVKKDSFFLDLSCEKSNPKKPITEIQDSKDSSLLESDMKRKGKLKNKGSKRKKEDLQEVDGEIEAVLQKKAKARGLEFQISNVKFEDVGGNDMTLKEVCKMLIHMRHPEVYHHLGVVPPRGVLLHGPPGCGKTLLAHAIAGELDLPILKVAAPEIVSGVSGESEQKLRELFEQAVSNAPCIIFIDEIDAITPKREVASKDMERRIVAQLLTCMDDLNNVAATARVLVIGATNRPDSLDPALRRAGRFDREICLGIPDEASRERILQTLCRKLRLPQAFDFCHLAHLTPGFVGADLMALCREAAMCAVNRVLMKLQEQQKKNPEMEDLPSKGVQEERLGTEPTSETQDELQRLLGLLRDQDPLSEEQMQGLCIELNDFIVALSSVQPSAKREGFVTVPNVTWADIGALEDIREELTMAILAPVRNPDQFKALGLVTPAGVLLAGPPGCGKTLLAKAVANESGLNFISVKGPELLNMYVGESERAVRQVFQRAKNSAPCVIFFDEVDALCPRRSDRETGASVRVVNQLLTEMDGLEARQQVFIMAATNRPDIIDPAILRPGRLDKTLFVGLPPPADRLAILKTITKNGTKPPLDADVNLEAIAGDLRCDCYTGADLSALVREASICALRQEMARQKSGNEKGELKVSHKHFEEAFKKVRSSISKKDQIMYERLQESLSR
Put plainly: in-cell UV photocrosslinking, click dye, gel fluorescence of purified NVL.

The target in experiment [2] is T2, NVL-SNAP (recombinant NVL WT; SNAP-NVL-3xFlag) (Homo sapiens, UniProt O15381, R403W).
T2 sequence (O15381 1-856 R403W): T1 sequence (O15381 1-856) with R403W
The experiment is described as above.

Experiment [3] deals with T1, NVL-SNAP (recombinant NVL WT; SNAP-NVL-3xFlag). Put plainly: competition of MM514 photocrosslinking to NVL-SNAP.

As a reminder, the EC50 is the midpoint of the concentration-response curve.

Numbering of substitutions follows the chain as printed.

For `C#CCOCCN1C(=O)c2ccccc2Sc2cc(NC(=O)c3ccc(N=[N+]=[N-])cc3)ccc21` [MM514, 4-Azido-N-(11-oxo-10-(2-(prop-2-yn-1-yloxy)ethyl)-10,11-dihydro-dibenzo[b,f][1,4]thiazepin-7-yl)benzamide], the EC50 in experiment [1] was 0.49 µM; in experiment [2], above 17 µM.
Regarding `COCCN1C(=O)c2ccccc2Sc2cc(NC(=O)c3ccccc3OC)ccc21` [MM691, 2-Methoxy-N-(10-(2-methoxyethyl)-11-oxo-10,11-dihydrodibenzo[b,f][1,4]thiazepin-7-yl)benzamide], in experiment [3], the EC50 was 26 µM.
The same measure, in the same setting: the same measure for `COCCN1C(=O)c2ccccc2Sc2cc(NC(=O)c3ccc(OC)cc3)ccc21` [MM524, 4-Methoxy-N-(10-(2-methoxyethyl)-11-oxo-10,11-dihydrodibenzo[b,f][1,4]thiazepin-7-yl)benzamide]: 2.6 µM.
